Measured values reported in patent US20260022142A1, “MACROCYCLIC IMMUNOMODULATORS” (Bristol-Myers Squibb Company, priority 2022, published 2026).
Bridge positions count the residues as written; N and C are the ends. Square brackets hold non-standard residues; d marks the D form. Peptide text beside a SMILES is read from it. * marks the point of attachment. ξ: configuration not given here. Bip = N[C@@H](Cc1ccc(-c2ccccc2)cc1)C(=O)O; Phe(3-Me) = Cc1cccc(C[C@H](N)C(=O)O)c1; hArg = N=C(N)NCCCC[C@H](N)C(=O)O; Cha = N[C@@H](CC1CCCCC1)C(=O)O; aThr = C[C@H](O)[C@H](N)C(=O)O; Thr(3ξ) = CC(O)[C@H](N)C(=O)O; Carboxymethyl = O=C(O)C*; Orn = NCCC[C@H](N)C(=O)O; Aun = NCCCCCCCCCCC(=O)O; Dab = NCC[C@H](N)C(=O)O; AEEA = NCCOCCOCC(=O)O

Target: T1, PD-1/PD-L1 interaction (PE-labeled human PD-L1-Ig binding to Jurkat cell line over-expressing human PD-1) (Homo sapiens, UniProt Q15116)
T1 construct: expressed in transfected cells; host or cells: Jurkat
Assay: Jurkat-PD-1 Cell Binding High-Content Screening Assay (CBA)
Assay type: cell-based
Settings: Jurkat cell line over-expressing human PD-1; PE-labeled PD-L1-Ig 20 nM final; read-out: Jurkat hPD1-PDL1 IC50
Outline: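 Binding of fluorescent PD-L1-Ig (20 nM final) to Jurkat-PD-1 cells was measured by automated imaging after 1 h, following a 2 h compound pre-treatment at 37° C.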

T1 sequence (Q15116 25-288): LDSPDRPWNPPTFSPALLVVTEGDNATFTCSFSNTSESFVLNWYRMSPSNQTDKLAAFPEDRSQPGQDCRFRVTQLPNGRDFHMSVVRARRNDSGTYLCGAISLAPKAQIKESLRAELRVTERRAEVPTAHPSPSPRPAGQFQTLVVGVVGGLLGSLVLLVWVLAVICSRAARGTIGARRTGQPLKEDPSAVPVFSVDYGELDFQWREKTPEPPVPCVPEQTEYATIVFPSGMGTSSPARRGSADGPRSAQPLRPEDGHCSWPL

An IC50 of 10.9 nM was found for `Cc1cccc(C[C@@H]2NC(=O)[C@H](CC(=O)O)NC(=O)[C@H](Cc3ccc(OCC(=O)O)cc3)NC(=O)[C@H](C(C)O)NC(=O)CSC[C@@H](C(=O)N[C@H](CC(N)=O)C(=O)NCCOCCOCC(=O)NCCCCCCCCCCC(=O)O)NC(=O)[C@H](CO)NC(=O)[C@H](C(C)C)NC(=O)[C@H](CC3CCCCC3)NC(=O)[C@H](CCN)NC(=O)[C@@H](CC(C)C)NC(=O)[C@H](CCCN)NC(=O)[C@H](C(C)C)NC(=O)[C@H](Cc3ccc(-c4ccccc4)cc3)NC(=O)[C@H](C(C)C)NC2=O)c1` (stereo partly drawn) [Compound 3254] ({CH2CO}-[Thr(3ξ)]Y(Carboxymethyl)D[Phe(3-Me)]V[Bip]V[Orn][dL][Dab][Cha]VSC[dN][AEEA][Aun]-OH; thioether N-14) in this work.
An IC50 of 13.2 nM was found for `CC(C)C[C@H]1NC(=O)[C@H](CCN)NC(=O)[C@H](C(C)C)NC(=O)[C@H](Cc2ccc(-c3ccccc3)cc2)NC(=O)[C@H](C(C)C)NC(=O)[C@H](Cc2c[nH]c3ccccc23)NC(=O)[C@H](CC(=O)O)NC(=O)[C@H](Cc2ccc(OCC(=O)O)cc2)NC(=O)[C@H](CCCCNC(=N)N)NC(=O)CSC[C@@H](C(=O)N[C@@H](CCN)C(=O)NCCCCCCCCCCC(=O)O)NC(=O)[C@H](CCCCN)NC(=O)[C@H](C(C)C)NC(=O)[C@H](CC2CCCCC2)NC(=O)[C@H](CCN)NC1=O` [Compound 3255] ({CH2CO}-[hArg]Y(Carboxymethyl)DWV[Bip]V[Dab][dL][Dab][Cha]VKC[Dab][Aun]-OH; thioether N-14) in this work.
An IC50 of 4 nM was found for `Cc1cccc(C[C@@H]2NC(=O)[C@H](CC(=O)O)NC(=O)[C@H](Cc3ccc(OCC(=O)O)cc3)NC(=O)[C@H]([C@H](C)O)NC(=O)CSC[C@@H](C(=O)N[C@H](CC(N)=O)C(=O)NCCOCCOCC(=O)NCCCCCCCCCCC(=O)O)NC(=O)[C@H](CCCCN)NC(=O)[C@H](C(C)C)NC(=O)[C@H](CC3CCCCC3)NC(=O)[C@H](CCN)NC(=O)[C@@H](CC(C)C)NC(=O)[C@H](CCN)NC(=O)[C@H](C(C)C)NC(=O)[C@H](Cc3ccc(-c4ccccc4)cc3)NC(=O)[C@H](C(C)C)NC2=O)c1` [Compound 3256] ({CH2CO}-[aThr]Y(Carboxymethyl)D[Phe(3-Me)]V[Bip]V[Dab][dL][Dab][Cha]VKC[dN][AEEA][Aun]-OH; thioether N-14) in this work.
An IC50 of 5.3 nM was found for `Cc1cccc(C[C@@H]2NC(=O)[C@H](CC(=O)O)NC(=O)[C@H](Cc3ccc(OCC(=O)O)cc3)NC(=O)[C@H](C(C)O)NC(=O)CSC[C@@H](C(=O)NCCOCCOCC(=O)NCCCCCCCCCCC(=O)O)NC(=O)[C@H](CCCCN)NC(=O)[C@H](C(C)C)NC(=O)[C@H](CC3CCCCC3)NC(=O)[C@H](CCN)NC(=O)[C@@H](CC(C)C)NC(=O)[C@H](CCN)NC(=O)[C@H](C(C)C)NC(=O)[C@H](Cc3ccc(-c4ccccc4)cc3)NC(=O)[C@H](C(C)C)NC2=O)c1` (stereo partly drawn) [Compound 3257] ({CH2CO}-[Thr(3ξ)]Y(Carboxymethyl)D[Phe(3-Me)]V[Bip]V[Dab][dL][Dab][Cha]VKC[AEEA][Aun]-OH; thioether N-14) in this work.
An IC50 of 37.3 nM was found for `CC(C)C[C@@H]1NC(=O)[C@H](Cc2c[nH]c3ccccc23)NC(=O)[C@H](CC(=O)O)NC(=O)[C@H](Cc2ccc(OCC(=O)O)cc2)NC(=O)[C@H](CCCCNC(=N)N)NC(=O)CSC[C@@H](C(=O)NCCOCCOCC(=O)N[C@@H](CCN)C(=O)NCCCCCCCCCCC(=O)O)NC(=O)[C@H](CCCCN)NC(=O)[C@H](C(C)C)NC(=O)[C@H](CC2CCCCC2)NC(=O)[C@H](CCN)NC(=O)[C@@H](C)NC(=O)[C@H](CCN)NC(=O)[C@H](C(C)C)NC(=O)[C@H](Cc2ccc(-c3ccccc3)cc2)NC1=O` [Compound 3258] ({CH2CO}-[hArg]Y(Carboxymethyl)DWL[Bip]V[Dab][dA][Dab][Cha]VKC[AEEA][Dab][Aun]-OH; thioether N-14) in this work.
An IC50 of 10.9 nM was found for `Cc1cccc(C[C@@H]2NC(=O)[C@H](CC(=O)O)NC(=O)[C@H](Cc3ccc(OCC(=O)O)cc3)NC(=O)[C@H](CCCCNC(=N)N)NC(=O)CSC[C@@H](C(=O)N[C@@H](CCN)C(=O)NCCCCCCCCCCC(=O)O)NC(=O)[C@H](CCCN)NC(=O)[C@H](C(C)C)NC(=O)[C@H](CC3CCCCC3)NC(=O)[C@H](CCN)NC(=O)[C@@H](CC(C)C)NC(=O)[C@H](CCCN)NC(=O)[C@H](C(C)C)NC(=O)[C@H](Cc3ccc(-c4ccccc4)cc3)NC(=O)[C@H](C(C)C)NC2=O)c1` [Compound 3259] ({CH2CO}-[hArg]Y(Carboxymethyl)D[Phe(3-Me)]V[Bip]V[Orn][dL][Dab][Cha]V[Orn]C[Dab][Aun]-OH; thioether N-14) in this work.
An IC50 of 12.2 nM was found for `Cc1cccc(C[C@@H]2NC(=O)[C@H](CC(=O)O)NC(=O)[C@H](Cc3ccc(OCC(=O)O)cc3)NC(=O)[C@H](CCCCNC(=N)N)NC(=O)CSC[C@@H](C(=O)N[C@@H](CCN)C(=O)NCCCCCCCCCCC(=O)O)NC(=O)[C@H](CCCCN)NC(=O)[C@H](C(C)C)NC(=O)[C@H](CC3CCCCC3)NC(=O)[C@H](CCN)NC(=O)[C@@H](CC(C)C)NC(=O)[C@H](CCCN)NC(=O)[C@H](C(C)C)NC(=O)[C@H](Cc3ccc(-c4ccccc4)cc3)NC(=O)[C@H](C(C)C)NC2=O)c1` [Compound 3260] ({CH2CO}-[hArg]Y(Carboxymethyl)D[Phe(3-Me)]V[Bip]V[Orn][dL][Dab][Cha]VKC[Dab][Aun]-OH; thioether N-14) in this work.
An IC50 of 6.7 nM was found for `CC(C)C[C@H]1NC(=O)[C@H](CCCN)NC(=O)[C@H](C(C)C)NC(=O)[C@H](Cc2ccc(-c3ccccc3)cc2)NC(=O)[C@H](C(C)C)NC(=O)[C@H](Cc2c[nH]c3ccccc23)NC(=O)[C@H](CC(=O)O)NC(=O)[C@H](Cc2ccc(OCC(=O)O)cc2)NC(=O)[C@H](CCCCNC(=N)N)NC(=O)CSC[C@@H](C(=O)NCCOCCOCC(=O)NCCCCCCCCCCC(=O)O)NC(=O)[C@H](CCCN)NC(=O)[C@H](C(C)C)NC(=O)[C@H](CC2CCCCC2)NC(=O)[C@H](CCN)NC1=O` [Compound 3262] ({CH2CO}-[hArg]Y(Carboxymethyl)DWV[Bip]V[Orn][dL][Dab][Cha]V[Orn]C[AEEA][Aun]-OH; thioether N-14) in this work.
An IC50 of 55.3 nM was found for `CC(C)C[C@H]1NC(=O)[C@H](CCCN)NC(=O)[C@H](C(C)C)NC(=O)[C@H](Cc2ccc(-c3ccccc3)cc2)NC(=O)[C@H](C(C)C)NC(=O)[C@H](Cc2c[nH]c3ccccc23)NC(=O)[C@H](CC(=O)O)NC(=O)[C@H](Cc2c[nH]cn2)NC(=O)[C@H](CCCCNC(=N)N)NC(=O)CSC[C@@H](C(=O)N[C@@H](CCN)C(=O)NCCCCCCCCCCC(=O)O)NC(=O)[C@H](CCCN)NC(=O)[C@H](C(C)C)NC(=O)[C@H](CC2CCCCC2)NC(=O)[C@H](CCN)NC1=O` [Compound 3263] ({CH2CO}-[hArg]HDWV[Bip]V[Orn][dL][Dab][Cha]V[Orn]C[Dab][Aun]-OH; thioether N-14) in this work.
An IC50 of 12.6 nM was found for `Cc1cccc(C[C@@H]2NC(=O)[C@H](CC(=O)O)NC(=O)[C@H](Cc3c[nH]cn3)NC(=O)[C@H](CCCCNC(=N)N)NC(=O)CSC[C@@H](C(=O)NCCOCCOCC(=O)NCCCCCCCCCCC(=O)O)NC(=O)[C@H](CCCN)NC(=O)[C@H](C(C)C)NC(=O)[C@H](CC3CCCCC3)NC(=O)[C@H](CCN)NC(=O)[C@@H](CC(C)C)NC(=O)[C@H](CCCN)NC(=O)[C@H](C(C)C)NC(=O)[C@H](Cc3ccc(-c4ccccc4)cc3)NC(=O)[C@H](C(C)C)NC2=O)c1` [Compound 3264] ({CH2CO}-[hArg]HD[Phe(3-Me)]V[Bip]V[Orn][dL][Dab][Cha]V[Orn]C[AEEA][Aun]-OH; thioether N-14) in this work.
